Earlier results as cited in patent publication US20160303051A1, “Burst Drug Release Compositions” (Wyeth LLC, priority 2009, published 2016).

solubility (BCS): low solubility
SMILES: CC(C)Cc1ccc(C(C)C(=O)O)cc1 (stereo not shown) [Ibuprofen, ibuprofen]
